Measurements published in patent US12268685B2, “Dosing regimen for injectable cetirizine” (JDP THERAPEUTICS LLC, priority 2019, dated 2025).
Like-named read-outs stand apart in the source and are kept apart here.

Assays:
[1] = system: subjects with acute urticaria; conditions: for Developed other symptoms: No / Developed other symptoms: Yes / Needed additional medication: No / Needed additional medication: Yes / Needed medication prescribed at discharge: No / Needed medication prescribed at discharge: No medication prescribed / Needed medication prescribed at discharge: Yes / Recurrence of allergic symptoms: No / Recurrence of allergic symptoms: Yes / Returned to normal activity: No / Returned to normal activity: Yes: ITT; for Patient-rated pruritus severity score, 2 Hour Change from Baseline, mean (primary efficacy measure): LOCF
[2] = injection; cited from earlier work
[3] = 24 hrs after discharge, count (percentage)
[4] = 48 hrs after discharge, count (percentage)
[5] = ITT Population, listed as diphenhydramine
[6] = ITT Population, before treatment
[7] = ITT Population, count (percentage)

## CN(C)CCOC(c1ccccc1)c1ccccc1 [Diphenhydramine Injection]
[1]; [3]
  Developed other symptoms: No: 107 (79.26)
  Developed other symptoms: Yes: 22 (16.30)
  Needed additional medication: No: 94 (69.63)
  Needed additional medication: Yes: 35 (25.93)
  Needed medication prescribed at discharge: No: 39 (28.89)
  Needed medication prescribed at discharge: No medication prescribed: 21 (15.56)
  Needed medication prescribed at discharge: Yes: 69 (51.11)
  Recurrence of allergic symptoms: No: 58 (42.96)
  Recurrence of allergic symptoms: Yes: 71 (52.59)
  Returned to normal activity: No: 29 (21.48)
  Returned to normal activity: Yes: 100 (74.07)
[1]; [4]
  Developed other symptoms: No: 114 (84.44)
  Developed other symptoms: Yes: 13 (9.63)
  Needed additional medication: No: 101 (74.81)
  Needed additional medication: Yes: 26 (19.26)
  Needed medication prescribed at discharge: No: 31 (22.96)
  Needed medication prescribed at discharge: No medication prescribed: 20 (14.81)
  Needed medication prescribed at discharge: Yes: 76 (56.30)
  Recurrence of allergic symptoms: No: 74 (54.81)
  Recurrence of allergic symptoms: Yes: 53 (39.26)
  Returned to normal activity: No: 22 (16.30)
  Returned to normal activity: Yes: 105 (77.78)
[1]; ITT Population
  Course of subject-rated sedation scores after treatment: remained above baseline through discharge
  Patient-rated pruritus severity score, 1 Hour Assessment, mean: 0.83
  Patient-rated pruritus severity score, 1 Hour Change from Baseline, mean: −1.36
  Patient-rated pruritus severity score, 2 Hour Assessment, mean: 0.70
  Patient-rated pruritus severity score, Discharge Assessment, mean: 0.67
  Patient-rated pruritus severity score, Discharge Change from Baseline, mean: −1.52
  Physician-rated urticaria/erythema score, 1 Hour Assessment, mean: 1.42
  Physician-rated urticaria/erythema score, 1 Hour Change from Baseline, mean: −0.42
  Physician-rated urticaria/erythema score, 2 Hour Assessment, mean: 1.33
  Physician-rated urticaria/erythema score, 2 Hour Change from Baseline, mean: −0.51
  Physician-rated urticaria/erythema score, Discharge Assessment, mean: 1.33
  Physician-rated urticaria/erythema score, Discharge Change from Baseline, mean: −0.51
  Subject-rated sedation score, 1 Hour Assessment, mean: 1.10
  Subject-rated sedation score, 1 Hour Change from Baseline, mean: 0.70
  Subject-rated sedation score, 2 Hour Assessment, mean: 0.88
  Subject-rated sedation score, 2 Hour Change from Baseline, mean: 0.49
  Subject-rated sedation score, Discharge Assessment, mean: 0.86
  Subject-rated sedation score, Discharge Change from Baseline, mean: 0.47
  Time spent at the treatment center, Mean (SD): 2.07 (1.112) Hours
  Time spent at the treatment center, Median: 2.02 h
  Patient-rated pruritus severity score, 2 Hour Change from Baseline, mean (primary efficacy measure): −1.50
[1]; [5]
  Patient-rated pruritus severity score, 2 Hour Change from Baseline, mean (primary efficacy measure): −1.50 (0.984)
  Time spent at the treatment center, Mean (SD): 2.1 (1.1) Hours
[1]; [6]
  Patient-rated pruritus severity score, Baseline Assessment, mean: 2.19
  Physician-rated urticaria/erythema score, Baseline Assessment, mean: 1.84
  Subject-rated sedation score, Baseline Assessment, mean: 0.39
[1]; [7]
  Subjects who returned to the treatment center: No: 116 (85.93)
  Subjects who returned to the treatment center: Yes: 19 (14.07)
[1]; Investigator's opinion, count (percentage)
  Effectively treated subjects, yes: 93 (68.89)
[1]; clinical trials, treatment group
  Proportion of patients returning to any emergency department or clinic: 14%
[1]; count (percentage)
  Subjects needed rescue drug, yes: 37 (27.41)
[1]; score reduction of at least 1 unit at 2 hr, count (percentage)
  Pruritus treatment success, yes: 111 (82.22)

## OCCOCCN1CCN(C(c2ccccc2)c2ccc(Cl)cc2)CC1 (stereo not shown) [hydroxyzine]
[2]
  Hemolysis: significant problem
